In patent US20240158446A1, “CYCLIC COMPOUND HAVING SELECTIVE INHIBITORY ACTION ON KRAS OVER HRAS AND NRAS” (CHUGAI SEIYAKU KABUSHIKI KAISHA, priority 2021, published 2024):
pKd: −log10 of the molar value.

Experiments:
[1] = biological target: GDP-bound KRAS wild-type protein (Homo sapiens, UniProt P01116); assay: Binding to KRAS by surface plasmon resonance (SPR), Single Cycle Kinetics; details: SPR, Single Cycle Kinetics, GDP-bound KRAS wild-type protein; read-out: KRAS KD
[2] = biological target: GDP-bound NRAS wild-type protein (Homo sapiens, UniProt P01111); assay: Binding to NRAS by surface plasmon resonance (SPR), Single Cycle Kinetics; details: ratio of KD for GDP-bound NRAS wild-type protein to KD for KRAS, SPR
[3] = biological target: GDP-bound HRAS wild-type protein (Homo sapiens, UniProt P01112); assay: Binding to HRAS by surface plasmon resonance (SPR), Single Cycle Kinetics; details: ratio of KD for GDP-bound HRAS wild-type protein to KD for KRAS, SPR
[4] = system: human lung cancer strain NCI-H441; assay: cells; details: NCI-H441, 96 h, read-out: NCI-H441 IC50 (nM), NCI-H441 cell proliferation, 4 days, CellTiter-Glo;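 note: cell proliferation inhibition after four days measured by CellTiter-Glo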

Chain of GDP-bound HRAS wild-type protein (P01112 whole entry): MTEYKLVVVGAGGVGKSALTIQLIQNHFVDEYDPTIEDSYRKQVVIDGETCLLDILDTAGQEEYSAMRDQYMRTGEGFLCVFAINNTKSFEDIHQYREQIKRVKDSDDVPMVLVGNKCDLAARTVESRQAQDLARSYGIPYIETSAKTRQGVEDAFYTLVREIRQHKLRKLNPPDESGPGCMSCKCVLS
Chain of GDP-bound NRAS wild-type protein (P01111 whole entry): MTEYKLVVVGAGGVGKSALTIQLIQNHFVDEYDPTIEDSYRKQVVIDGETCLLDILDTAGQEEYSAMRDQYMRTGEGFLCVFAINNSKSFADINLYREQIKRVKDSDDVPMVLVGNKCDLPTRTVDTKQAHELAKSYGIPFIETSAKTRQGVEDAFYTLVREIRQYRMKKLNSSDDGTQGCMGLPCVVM
Chain of GDP-bound KRAS wild-type protein (P01116 whole entry): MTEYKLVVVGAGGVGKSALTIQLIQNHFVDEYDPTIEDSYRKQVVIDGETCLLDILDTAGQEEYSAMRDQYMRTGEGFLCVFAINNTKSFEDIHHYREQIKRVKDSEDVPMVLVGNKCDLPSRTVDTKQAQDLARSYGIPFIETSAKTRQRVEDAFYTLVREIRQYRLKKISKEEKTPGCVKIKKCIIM

pKd [1] | IC50 [4] [nM] | SMILES | NRAS/KRAS (KD ratio) [2] | HRAS/KRAS (KD ratio) [3]
9.92 | 22.6 | CC[C@H](C)[C@@H]1NC(=O)[C@H](C2CC2)N(C)C(=O)C[C@@H](C(=O)N(C)C)N(C)C(=O)[C@H](C2CCCC2)N(C)C(=O)C2(CCCC2)N(C)C(=O)[C@@H]2C[C@@H](C)CN2C(=O)[C@H](CCc2cc(F)c(C(F)(F)F)c(F)c2)NC(=O)CN(C)C(=O)[C@H](Cc2ccc(C)cc2)N2CC/C=C\C[C@@H](C2=O)N(C)C(=O)CN(C)C1=O [PP1813] | A (a compound having 10 or more and less than 20 is denoted as A) | B (a compound having 3 or more and less than 10 is denoted as B)
10.19 | 2.2 | CCCC[C@H]1C(=O)N[C@@H]([C@@H](C)CC)C(=O)N(C)CC(=O)N(C)[C@H]2C/C=C\CCN(C2=O)[C@@H](Cc2ccc(C(F)(F)F)cc2)C(=O)N(C)CC(=O)N[C@@H](CCc2cc(F)c(C(F)(F)F)c(F)c2)C(=O)N2C[C@H](OCC)C[C@H]2C(=O)NC2(CC(C)(C)C2)C(=O)N(C)[C@@H](C2CCCC2)C(=O)N(C)[C@H](C(=O)N(C)C)CC(=O)N1C [PP1649] | A (a compound having 10 or more and less than 20 is denoted as A) | B (a compound having 3 or more and less than 10 is denoted as B)
9.49 | 32.5 | CCO[C@@H]1C[C@H]2C(=O)NC3(CCC3)C(=O)N(C)[C@@H](C3CCCC3)C(=O)N(C)[C@H](C3CCC3)CC(=O)N(C)[C@@H](CC3CC3)C(=O)N[C@@H]([C@@H](C)CC)C(=O)N(C)CC(=O)N(C)[C@H]3C/C=C\CCN(C3=O)[C@@H](Cc3ccc(C(F)(F)F)cc3)C(=O)N(C)CC(=O)N[C@@H](CCc3cc(F)c(C(F)(F)F)c(F)c3)C(=O)N2C1 [PP1637] | A (a compound having 10 or more and less than 20 is denoted as A) | A (a compound having 10 or more and less than 20 is denoted as A)
9.82 | 7.7 | CC[C@H](C)[C@@H]1NC(=O)[C@H](CC2CCC2)N(C)C(=O)C[C@@H](C(=O)N(C)C)N(C)C(=O)[C@H](C2CCCC2)N(C)C(=O)C2(CC(C)(C)C2)NC(=O)[C@@H]2C[C@H](C)CN2C(=O)[C@H](CCc2cc(F)c(C(F)(F)F)c(F)c2)NC(=O)CN(C)C(=O)[C@H](Cc2ccc(C(F)(F)F)cc2)N2CC/C=C\C[C@@H](C2=O)N(C)C(=O)CN(C)C1=O [PP1684] | A (a compound having 10 or more and less than 20 is denoted as A) | A (a compound having 10 or more and less than 20 is denoted as A)
8.85 | 86.8 | CCO[C@@H]1C[C@H]2C(=O)NC3(CC(C)(C)C3)C(=O)N(C)[C@@H](C(CC)CC)C(=O)N3CCC[C@@H]3CC(=O)N(C)[C@@H](CC3CC3)C(=O)N[C@@H]([C@@H](C)CC)C(=O)N(C)CC(=O)N(C)[C@H]3C/C=C\CCN(C3=O)[C@@H](Cc3ccc(C(F)(F)F)cc3)C(=O)N(C)CC(=O)N[C@@H](CCc3cc(F)c(C(F)(F)F)c(F)c3)C(=O)N2C1 [PP1610] | A (a compound having 10 or more and less than 20 is denoted as A) | A (a compound having 10 or more and less than 20 is denoted as A)
10.09 | 2.6 | CC[C@H](C)[C@@H]1NC(=O)[C@H](CC(F)(F)F)N(C)C(=O)C[C@@H](C(=O)N(C)C)N(C)C(=O)[C@H](C2CCCC2)N(C)C(=O)C2(CC(C)(C)C2)NC(=O)[C@@H]2C[C@H](C)CN2C(=O)[C@H](CCc2cc(F)c(C(F)(F)F)c(F)c2)NC(=O)CN(C)C(=O)[C@H](Cc2ccc(C(F)(F)F)cc2)N2CC/C=C\C[C@@H](C2=O)N(C)C(=O)CN(C)C1=O [PP1682] | AA (a compound having 20 or more is denoted as AA) | A (a compound having 10 or more and less than 20 is denoted as A)
9.82 | 14.7 | CCO[C@@H]1C[C@H]2C(=O)NC3(CCC3)C(=O)N(C)[C@@H](C3CCCC3)C(=O)N3CCC[C@@H]3CC(=O)N(C)[C@@H](CC3CC3)C(=O)N[C@@H]([C@@H](C)CC)C(=O)N(C)CC(=O)N(C)[C@H]3C/C=C\CCN(C3=O)[C@@H](Cc3ccc(C(F)(F)F)cc3)C(=O)N(C)CC(=O)N[C@@H](CCc3cc(F)c(C(F)(F)F)c(F)c3)C(=O)N2C1 [PP1613] | B (a compound having 3 or more and less than 10 is denoted as B) | B (a compound having 3 or more and less than 10 is denoted as B)
9.96 | 18.1 | CCCN(C)C(=O)[C@@H]1CC(=O)N(C)[C@@H](CCOC)C(=O)N[C@@H]([C@@H](C)CC)C(=O)N(C)CC(=O)N(C)[C@H]2C/C=C\CCN(C2=O)[C@@H](Cc2ccc(C(F)(F)F)cc2)C(=O)N(C)CC(=O)N[C@@H](CCc2ccc(C(F)(F)F)c(OC)c2)C(=O)N2C[C@@H](C)C[C@H]2C(=O)NC2(CC(C)(C)C2)C(=O)N(C)[C@@H](C2CCCC2)C(=O)N1C [PP2001] | A (a compound having 10 or more and less than 20 is denoted as A) | A (a compound having 10 or more and less than 20 is denoted as A)
9.77 | 9.2 | CCC[C@H]1C(=O)N[C@@H]([C@@H](C)CC)C(=O)N(C)CC(=O)N(C)[C@H]2C/C=C\CCN(C2=O)[C@@H](Cc2ccc(C(F)(F)F)cc2)C(=O)N(C)CC(=O)N[C@@H](CCc2cc(F)c(C(F)(F)F)c(F)c2)C(=O)N2C[C@H](OCC)C[C@H]2C(=O)NC2(CC(C)(C)C2)C(=O)N(C)[C@@H]([C@@H](C)CC)C(=O)N(C)[C@H](C(=O)N(C)C)CC(=O)N1C [PP1941] | A (a compound having 10 or more and less than 20 is denoted as A) | A (a compound having 10 or more and less than 20 is denoted as A)
9.64 | 13.4 | CCO[C@@H]1C[C@H]2C(=O)NC3(CC(C)(C)C3)C(=O)N(C)[C@@H](C3CCCC3)C(=O)N(C)[C@H](C(=O)N(C)C)CC(=O)N(CC)[C@@H](CC(C)C)C(=O)N[C@@H]([C@@H](C)CC)C(=O)NCC(=O)N(C)[C@H]3C/C=C\CCN(C3=O)[C@@H](Cc3ccc(C(F)(F)F)cc3)C(=O)N(C)CC(=O)N[C@@H](CCc3cc(F)c(C(F)(F)F)c(F)c3)C(=O)N2C1 [PP1772] | B (a compound having 3 or more and less than 10 is denoted as B) | B (a compound having 3 or more and less than 10 is denoted as B)
10.12 | 5.1 | CCCN(C)C(=O)[C@@H]1CC(=O)N(C)[C@@H](COC)C(=O)N[C@@H]([C@@H](C)CC)C(=O)N(C)CC(=O)N(C)[C@H]2C/C=C\CCN(C2=O)[C@@H](Cc2ccc(C(F)(F)F)cc2)C(=O)N(C)CC(=O)N[C@@H](CCc2cc(F)c(C(F)(F)F)c(F)c2)C(=O)N2C[C@H](OCC)C[C@H]2C(=O)NC2(CC(F)(F)C2)C(=O)N(C)[C@@H](C2CCCC2)C(=O)N1C [PP1743] | AA (a compound having 20 or more is denoted as AA) | A (a compound having 10 or more and less than 20 is denoted as A)
9.89 | 10.7 | CC[C@H](C)[C@@H]1NC(=O)[C@H](C(C)C)N(C)C(=O)C[C@@H](C(=O)N(C)C)N(C)C(=O)[C@H](C2CCCC2)N(C)C(=O)C2(CC(C)(C)C2)NC(=O)[C@@H]2C[C@H](C)CN2C(=O)[C@H](CCc2ccc(C(F)(F)F)c(OC)c2)NC(=O)CN(C)C(=O)[C@H](Cc2ccc(C(F)(F)F)cc2)N2CC/C=C\C[C@@H](C2=O)N(C)C(=O)CN(C)C1=O [PP2005] | A (a compound having 10 or more and less than 20 is denoted as A) | A (a compound having 10 or more and less than 20 is denoted as A)
9.47 | 15.3 | CC[C@H](C)[C@@H]1NC(=O)[C@H](CC(C)C)N(C)C(=O)C[C@@H](C(=O)N(C)CC)N(C)C(=O)[C@H](C2CCCC2)N(C)C(=O)C2(CC(C)(C)C2)NC(=O)[C@@H]2C[C@@H](C)CN2C(=O)[C@H](CCc2ccc(C(F)(F)F)c(OC)c2)NC(=O)CN(C)C(=O)[C@H](Cc2ccc(C)cc2)N2CC/C=C\C[C@@H](C2=O)N(C)C(=O)CN(C)C1=O [PP1909] | A (a compound having 10 or more and less than 20 is denoted as A) | B (a compound having 3 or more and less than 10 is denoted as B)
10.43 | 7.4 | CC[C@H](C)[C@@H]1NC(=O)[C@H](C)N(C)C(=O)C[C@@H](C(=O)N(C)C)N(C)C(=O)[C@H](C2CCCC2)N(C)C(=O)C2(CC(C)(C)C2)NC(=O)[C@@H]2CC(F)(F)CN2C(=O)[C@H](CCc2cc(F)c(C(F)(F)F)c(F)c2)NC(=O)CN(C)C(=O)[C@H](Cc2ccc(C(F)(F)F)cc2)N2CC/C=C\C[C@@H](C2=O)N(C)C(=O)CN(C)C1=O [PP1707] | AA (a compound having 20 or more is denoted as AA) | A (a compound having 10 or more and less than 20 is denoted as A)
9.80 | 4.6 | CCO[C@@H]1C[C@H]2C(=O)N(C)C3(CCCC3)C(=O)N(C)[C@@H](C3CCCC3)C(=O)N(C)[C@H](C(=O)N(C)C)CC(=O)N(C)[C@@H](CC)C(=O)N[C@@H]([C@@H](C)CC)C(=O)N3CCC[C@H]3C(=O)N(C)[C@H]3C/C=C\CCN(C3=O)[C@@H](Cc3ccc(C)cc3)C(=O)N(C)CC(=O)N[C@@H](CCc3cc(F)c(C(F)(F)F)c(F)c3)C(=O)N2C1 [PP1810] | A (a compound having 10 or more and less than 20 is denoted as A) | B (a compound having 3 or more and less than 10 is denoted as B)
